In patent US11478533B2, “Semaglutide for use in medicine” (Novo Nordisk A/S, priority 2020, dated 2022):

Key:
[1] = system: subjects with NAFLD and increased liver stiffness; assay: Clinical Trial B: liver steatosis by MRI-PDFF; assay type: in vivo, human; conditions: 0.4 mg OD s.c.
Method: A randomised, double-blind, placebo-controlled, parallel group, multi-centre phase 1 trial was carried out to investigate the effect of 0.4 mg semaglutide once-daily (OD) in 67 subjects with NAFLD and increased liver stiffness. Subjects received once daily either (i) semaglutide of 0.05 mg for 4 weeks, 0.1 mg for 4 weeks, 0.2 mg for 4 weeks, 0.3 mg for 4 weeks, and then 0.4 mg for the remaining trial period, or (ii) placebo in injection volumes corresponding to (i). Administration was performed via subcutaneous injection using (a) an aqueous solution comprising 1.0 mg/ml semaglutide, 1.42 mg/ml disodium hydrogen phosphate dihydrate, 14.0 mg/ml propylene glycol, 5.50 mg/ml phenol at pH 7.4, or (b) a placebo solution comprising the same ingredients as (a) except no semaglutide. Inclusion criteria for subjects in the trial comprised (i) liver steatosis of at least 10% measured by magnetic resonance imaging proton density fat fraction (MRI-PDFF) at screening, (ii) liver stiffness between 2.50 and 4.63 kPa (both inclusive) measured by magnetic resonance elastography at screening, (iii) BMI between 25.0 and 40.0 kg/m^2 (both inclusive) at screening, (iv) liver stiffness >6.50 kPa measured via Fibroscan® (manufactured by Echosens, Paris, France) at screening, and (v) for subjects with type 2 diabetes mellitus only, diagnosis of type 2 diabetes mellitus was at least 180 days prior to screening and with HbA1c of no more than 9.5% at screening. Screening was carried out prior to baseline in order to make assessments used to determine subject eligibility. Exclusion criteria for subjects in the trial comprised (i) documented causes of chronic liver disease other than NAFLD including NASH and (ii) no substantial alcohol consumption, defined in the trial as no more than 20 g ethanol per day for women or no more than 30 g ethanol per day for men. Baseline characteristics for all randomised subjects in the trial were shown in Table B. MRI-PDFF is a determination of the percentage of fat in the entire liver and the method is described in e.g. Caussy et al. Hepatology. 2018 August; 68(2):763-772.

subjects with NASH = assay: Clinical Trial A: enhanced liver fibrosis (ELF) score; assay type: in vivo, human; conditions: week 72; for Change in enhanced liver fibrosis (ELF) at end of trial compared to baseline relative to placebo, ETD: all randomised subjects, estimated treatment difference vs placebo (ANCOVA)
Description: In some embodiments the method of the invention reduces enhanced liver fibrosis (ELF). In some embodiments the term “enhanced liver fibrosis” (also referred to as ELF) as used herein refers to a score derived as a log-linear combination based on blood sample levels of hyaluronic acid (HA), amino-terminal propeptide of type III collagen (P3NP), and tissue inhibitor of metalloproteinase 1 (TIMP1) according to Formula (I): ELF=−7.412+0.681×ln(cHA)+0.775×ln(cP3NP)+0.494×ln(cTIMP1) (I) where cHA is the serum concentration of HA in ng/ml, cP3NP is the serum concentration of P3NP in ng/ml, and cTIMP1 is the serum concentration of TIMP1 in ng/ml.
A 72-week, randomised, double-blind, placebo-controlled, six-armed, parallel group, multicentre, multi-national phase 2 trial comparing once daily (OD) administration of semaglutide in three different doses (0.1 mg, 0.2 mg and 0.4 mg) with placebo in subjects with NASH was carried out. A total of 319 subjects received trial product, 302 subjects completed the trial, and 277 subjects had liver biopsy at trial week 72. Subjects received once daily (a) semaglutide of (i) 0.05 mg for 4 weeks and 0.1 mg for the remaining trial period, (ii) 0.05 mg for 4 weeks, 0.1 mg for 4 weeks, and 0.2 mg for the remaining trial period, (iii) 0.05 mg for 4 weeks, 0.1 mg for 4 weeks, 0.2 mg for 4 weeks, 0.3 mg for 4 weeks, and 0.4 mg for the remaining trial period, or (b) placebo in injection volumes corresponding to (i), (ii) or (iii). Administration was performed via subcutaneous injection using (a) an aqueous solution comprising 1.0 mg/ml semaglutide, 1.42 mg/ml disodium hydrogen phosphate dihydrate, 14.0 mg/ml propylene glycol, 5.50 mg/ml phenol at pH 7.4, or (b) a placebo solution comprising the same ingredients as (a) except no semaglutide. Inclusion criteria for subjects in the trial comprised (i) histologic evidence of NASH based on evaluation of a liver biopsy obtained up to 21 weeks before screening, (ii) a histological NAS >4 with a score of 1 or more in each sub-component of the score, and (iii) liver fibrosis stage 1, 2 or 3 according to the NASH-CRN. Screening was carried out prior to baseline in order to make assessments used to determine subject eligibility. Exclusion criteria for subjects in the trial comprised (i) documented causes of chronic liver disease other than NASH and (ii) no substantial alcohol consumption, defined in the trial as no more than 20 g ethanol per day for women or no more than 30 g ethanol per day for men. Baseline characteristics for all randomised subjects in the trial were as shown in Table A. The term “baseline” as used herein refers to the beginning of the trial prior to administration of semaglutide or placebo. […] The fibrosis stage was determined according to the Kleiner fibrosis classification.

## N-epsilon26-[2-(2-{2-[2-(2-{2-[(S)-4-Carboxy-4-(17-carboxyheptadecanoyl-amino)butyrylamino]ethoxy}ethoxy)acetylamino]ethoxy}ethoxy)acetyl] [Aib8, Arg34]GLP-1-(7-37) [Semaglutide]
[1]; 24 weeks of trial
  Reduction of liver steatosis compared to placebo: 30%
  Subjects with at least 30% reduction in liver steatosis: about 65%
[1]; 48 and 72 weeks of trial
  Reduction of liver steatosis compared to placebo: about 50%
  Subjects with at least 30% reduction in liver steatosis: 74-77%
[1]; trial week 24
  Change in liver steatosis by MRI-PDFF compared to baseline, Estimated mean ratio to baseline: 0.64
  Proportion of subjects with 30% or greater reduction in liver steatosis by MRI-PDFF compared to baseline: 64.7 (p = 0.0006) %
[1]; trial week 48
  Change in liver steatosis by MRI-PDFF compared to baseline, Estimated mean ratio to baseline: 0.42
  Proportion of subjects with 30% or greater reduction in liver steatosis by MRI-PDFF compared to baseline: 76.5 (p = 0.0001) %
[1]; trial week 72
  Change in liver steatosis by MRI-PDFF compared to baseline, Estimated mean ratio to baseline: 0.42
  Proportion of subjects with 30% or greater reduction in liver steatosis by MRI-PDFF compared to baseline: 73.5 (p = 0.0006) %
Subjects with NASH; 0.1 mg OD s.c.
  Change in enhanced liver fibrosis (ELF) at end of trial compared to baseline relative to placebo, ETD: −0.35 [−0.57;
Subjects with NASH; 0.2 mg OD s.c.
  Change in enhanced liver fibrosis (ELF) at end of trial compared to baseline relative to placebo, ETD: −0.40 [−0.62;
Subjects with NASH; 0.4 mg OD s.c.
  Change in enhanced liver fibrosis (ELF) at end of trial compared to baseline relative to placebo, ETD: −0.57 [−0.79;
Subjects with NASH; all tested semaglutide dosages
  Reduction of ELF compared to placebo (in words): reduced ELF significantly more compared to placebo
